Measurements reported in patent US11932594B1, “8-((2-hydroxy-5-methylphenyl)diazenyl)naphthalene-1,3-disulfonic acid as an antioxidant compound” (KING FAISAL UNIVERSITY, priority 2023, dated 2024).

Assay: DPPH (2,2-diphenyl-1-picrylhydrazyl) in vitro antioxidant test
Assay type: biochemical
Conditions: 517 nm; for Inhibition (radical scavenging inhibition): 0.2 mL DPPH (0.75 mM) in ethanol, 30 min incubation in the dark
Procedure: The antioxidant properties of the 8-((2-hydroxy-5-methylphenyl)diazenyl)naphthalene-1,3-disulfonic acid were studied by adding 0.2 mL DPPH (0.75 mM)) to compound 8-((2-hydroxy-5-methylphenyl)diazenyl)naphthalene-1,3-disulfonic acid (III) (304) in ethanol. After 30 min of incubation in the dark, the absorbance was read against a blank at 517 nm. Ascorbic acid (vitamin C) was used as standard antioxidants (positive control). A blank sample was prepared by 0.2 ml of DPPH in 3 ml ethanol. A negative control sample was run using ethanol instead of the sample. The radical scavenging inhibition was calculated using the following equation: […]

Row | Structure (SMILES) | Inhibition (radical scavenging inhibition) [%] | antioxidant potential compared to vitamin C (DPPH in vitro test, vitamin C as positive control)
1 | Cc1ccc(O)c(/N=N/c2cccc3cc(S(=O)(=O)O)cc(S(=O)(=O)O)c23)c1 [Product III, 8-((2-hydroxy-5-methylphenyl)diazenyl)naphthalene-1,3-disulfonic acid] | 54 | high potential as an antioxidant compared to vitamin C
2 | O=C1O[C@H]([C@@H](O)CO)C(O)=C1O [vit c, Ascorbic acid, reference compound] | 74 | 
